Experiments:
H3K4me2 in MV4-11 cells = experiment: Western blot of histone H3K4 methylation; type: cell-based, human; settings: 3 days
Procedure: Compounds 1 and 2 were selected for further biological activity testing. MV4-11 cells were treated with these two compounds for 3 days. […] Other researchers observed the similar results using a different LSD1 inhibitor.
With increasing concentrations of a compound for […], 10^6 cells/well were incubated and histones extracted with the EpiQuik™ Total Histone Extraction Kit (Epigentek) according to the manufacturer’s protocol. Equal amounts of histones (2 μg) were separated on SDS-PAGE and transferred to PVDF membranes. The blots were probed with H3K4-Me2 and H3 primary antibodies (Cell Signaling), followed by antirabbit IgG (Thermo Scientific) secondary antibodies.

[1] = parameters: method as in PMID 22754608; settings: mice; cited from earlier work
U937 leukemia cells = experiment: Antiproliferation assay (XTT), U937; type: cell-based; settings: Homo sapiens, U-937, 360 h; 15-day treatment; non-MLL leukemia cells; read-out: U937 EC50 (antiproliferative)
Procedure: (§1) We next examined the spectrum of antitumor activity for compounds 1–4. These compounds were incubated with a panel of six human leukemia and solid tumor cell lines, including two MLL-rearranged leukemia cells MV4-11 and Molm-13 containing fusion oncogenes MLL-AF4 and -AF9, respectively. […] Also included in the studies are breast cancer MCF-7 and prostate cancer LNCaP cells. […]
(§2) Proliferation inhibition assay for suspension leukemia cells was performed using an XTT assay kit (Roche) with our previously described method. Proliferation inhibition assay for solid tumor cell lines MCF-7 and LNCaP was performed using our previous described MTT assay. The antiproliferation EC50 values were determined by Prism, and the reported results were the mean values of at least three independent experiments.

NB4 leukemia cells = experiment: Antiproliferation assay (XTT), NB4; type: cell-based; settings: Homo sapiens, 360 h; 15-day treatment; non-MLL leukemia cells; read-out: NB4 EC50 (antiproliferative)
Procedure: as §1, §2

[2] = tested on: prostate cancer LNCaP cells; experiment: Antiproliferation assay (MTT), LNCaP; type: cell-based; settings: Homo sapiens, 360 h, 15-day treatment, read-out: LNCaP EC50 (antiproliferative)
Procedure: as §1, §2

human MAO-B = molecular target: T1, human MAO-B (Homo sapiens, UniProt P27338); experiment: MAO-B inhibition (MAO-Glo); type: biochemical
T1 construct: purchased Sigma
T1 sequence (P27338 1-520): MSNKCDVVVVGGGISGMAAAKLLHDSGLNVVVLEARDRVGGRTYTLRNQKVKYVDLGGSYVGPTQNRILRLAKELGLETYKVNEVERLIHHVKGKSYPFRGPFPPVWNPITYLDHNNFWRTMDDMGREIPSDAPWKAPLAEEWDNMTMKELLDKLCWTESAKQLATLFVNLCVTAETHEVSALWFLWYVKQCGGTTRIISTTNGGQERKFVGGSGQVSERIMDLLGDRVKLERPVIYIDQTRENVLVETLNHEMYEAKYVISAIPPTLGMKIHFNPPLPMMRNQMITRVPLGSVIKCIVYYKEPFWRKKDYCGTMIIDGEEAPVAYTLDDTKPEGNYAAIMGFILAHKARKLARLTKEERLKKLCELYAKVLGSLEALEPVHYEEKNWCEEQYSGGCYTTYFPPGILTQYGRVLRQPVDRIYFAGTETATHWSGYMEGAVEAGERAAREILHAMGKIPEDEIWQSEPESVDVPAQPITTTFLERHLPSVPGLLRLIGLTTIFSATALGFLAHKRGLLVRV
Procedure: Because MAO-A and -B play important roles in the degradation of neurotransmitters (e.g., serotonin and dopamine) in the central nervous system, selective inhibition for LSD1 is highly desirable.
Recombinant human MAO-A and -B were purchased from Sigma. The inhibitory activity was determined using MAO-Glo assay kit (Promega). In brief, following the manufacturer’s protocol, assays were performed in 384-well white plates (Corning) using MAO-A or -B (100 nM) with a final volume of 20 μL. Reactions were quenched after 60 min by adding reconstituted luciferin detection reagent (20 μL/well); 20 min after addition of the detection reagent, the luminescence of each well was measured using Beckman DTX-880 microplate reader. IC50 calculation was similar to that of LSD1.

MV4-11 cells = experiment: Cell migration assay (transwell); type: cell-based, human; settings: treatment for 4 days
Procedure: Importantly, only these stem-like cancer cells can form new tumors when transplanted into a new host, while the other non-stem cancer cells fail to do so. These stem-like cancer cells are more drug resistant and believed to be responsible for tumor metastasis and relapse. […] CD14 and CD11b are two cell surface proteins characteristic to differentiated macrophages/monocytes. […] Similarly, incubation with 2 led to considerably more CD11b^+ cells (Fig. 3b).
Cell migration assay was performed in a 24-well transwell plate with 8-μm polyethylene terephthalate membrane filters (Falcon cell culture insert; Becton-Dickinson) separating the lower from the upper culture chambers, according to the manufacturer’s instructions. […] Triplicate samples of 10^6 cells/well were plated in the upper chamber containing serum-free RPMI-1640. RPMI-1640 supplemented with 10 % FBS in the bottom chamber was used to attract cells to move through the filter. Cells were allowed to incubate at 37 °C for 4 h, after which the cells that had migrated through the pores were harvested in the bottom chamber and counted. Results are presented as means ± s.d.

recombinant human LSD1 = molecular target: T2, recombinant human LSD1 (Homo sapiens, UniProt O60341); experiment: LSD1 enzyme inhibition assay (HRP/Amplex red); type: biochemical
T2 construct: Human LSD1 catalytic domain (172-833) was cloned; made in house; host or cells: E. coli BL21-CodonPlus (Agilent)
Procedure: The LSD1 inhibition assay was performed with the reaction rate (i.e., amount of the product H2O2, Additional file 1: Figure S2) being quantitatively determined by adding horseradish peroxidase (HRP) and a HRP fluorescence substrate Amplex red.
Human LSD1 catalytic domain (172-833) was cloned and inserted into pGEX-KG vector. The correctness of insert was verified by sequencing. BL21-CodonPlus strain (Agilent) was transformed with the pGEX-KG-LSD1 plasmid and cultured at 37 °C in LB medium containing ampicillin (50 μg/mL) and chloramphenicol (34 μg/mL). Upon reaching an optical density of ~0.9 at 600 nm, LSD1 expression was induced by adding 0.2 mM isopropylthiogalactoside at 25 °C for 20 h. Cells were harvested, lysed, and centrifuged at 20,000 rpm for 20 min, and the supernatant was collected and subjected to an affinity column chromatography using the glutathione sepharose resin.
The inhibition assay for the recombinant LSD1 was performed using a published protocol, with the reaction rate (i.e., amount of the product H2O2) being quantitatively determined by adding HRP and a HRP fluorescence substrate Amplex red. […] The total volume of the reaction mixture is 60 μL. After 20 min, 60-μL solution containing HRP (0.01 unit) and Amplex red (80 μM) was added and the fluorescence of each well was determined using a Beckman DTX-880 microplate reader (excitation at 535 and emission at 595 nm). Data were imported into Prism 5.0 (GraphPad), and the IC50 values were calculated by using the sigmoidal dose response curve fitting in the software. The reported IC50s were the mean values of at least three independent experiments.

CN1CCN(C(=O)CNC2CC2c2ccc(OCc3ccccc3)cc2)CC1 (stereo not drawn) [Compound 1]
cellular levels of H3K4me2 (H3K4me2 in MV4-11 cells): increase cellular levels of H3K4me2 in a dose-dependent manner | half-life in the plasma [1]: ~ 1 h | EC50 (U937 leukemia cells): 18.9 µM | EC50 (NB4 leukemia cells): 19.4 µM | EC50 [2]: 3.7 µM

CN1CCN(C(=O)CNC2CC2c2ccc(-c3ccc(F)nc3)cc2)CC1 (stereo not drawn) [Compound 2]
cellular levels of H3K4me2 (H3K4me2 in MV4-11 cells): increase cellular levels of H3K4me2 in a dose-dependent manner | IC50 (human MAO-B): 480 µM | ability of MV4-11 cells to migrate through a membrane with 8-μm pores (MV4-11 cells): reduced ability for MV4-11 cells to migrate | EC50 (U937 leukemia cells): 34.6 µM | EC50 (NB4 leukemia cells): 18.9 µM | IC50 (recombinant human LSD1): 0.077 µM | EC50 [2]: 10 µM

Reference: publication PMC4789278, “Pharmacological inhibition of LSD1 for the treatment of MLL-rearranged leukemia” (Journal of Hematology & Oncology, 2016)
